Data published in patent US9533987B2, “Heterocyclic derivates” (KALVISTA PHARMACEUTICALS LIMITED, priority 2013, dated 2017).

Tests used:
[1] = molecular target: Human plasma kallikrein (Homo sapiens (Human), UniProt P03952); assay: Determination of the IC50 for plasma kallikrein (fluorogenic substrate H-DPro-Phe-Arg-AFC); type: biochemical; settings: 37° C., read-out: IC50 (human PKaI)
Description: Determination of the IC50 for Plasma Kallikrein
(§1) Human plasma kallikrein (Protogen) was incubated at 37° C. with the fluorogenic substrate H-DPro-Phe-Arg-AFC and various concentrations of the test compound. Residual enzyme activity (initial rate of reaction) was determined by measuring the change in […] at 410 nm and the IC50 value for the test compound was determined.

[2] = molecular target: Human KLK1 (Homo sapiens (Human), UniProt P06870); assay: Determination of the IC50 for KLK1 (fluorogenic substrate H-DVal-Leu-Arg-AFC); type: biochemical; settings: 37° C.
Sequence of Human KLK1 (P06870 25-262): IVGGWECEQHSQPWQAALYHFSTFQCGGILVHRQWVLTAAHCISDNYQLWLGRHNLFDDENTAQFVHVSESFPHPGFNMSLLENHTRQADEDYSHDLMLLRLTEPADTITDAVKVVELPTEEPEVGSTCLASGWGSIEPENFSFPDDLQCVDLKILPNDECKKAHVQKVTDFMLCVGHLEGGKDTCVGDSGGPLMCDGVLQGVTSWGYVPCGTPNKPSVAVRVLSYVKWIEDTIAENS
Description: Determination of the IC50 for KLK1
as §1, with “KLK1 (Callbiochem)” for “plasma kallikrein (Protogen)”, “H-DVal-Leu-Arg-AFC” for “H-DPro-Phe-Arg-AFC”

Sequence of Human plasma kallikrein (P03952 391-638): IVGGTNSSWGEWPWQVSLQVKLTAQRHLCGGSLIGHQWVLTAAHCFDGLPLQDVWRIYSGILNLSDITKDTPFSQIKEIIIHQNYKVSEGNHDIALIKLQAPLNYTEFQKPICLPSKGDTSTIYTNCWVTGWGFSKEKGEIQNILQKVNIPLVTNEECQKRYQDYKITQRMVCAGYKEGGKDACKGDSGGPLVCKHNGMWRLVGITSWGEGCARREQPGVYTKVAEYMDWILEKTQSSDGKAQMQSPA
Sequence of Human plasma kallikrein (P03952 20-390 partner): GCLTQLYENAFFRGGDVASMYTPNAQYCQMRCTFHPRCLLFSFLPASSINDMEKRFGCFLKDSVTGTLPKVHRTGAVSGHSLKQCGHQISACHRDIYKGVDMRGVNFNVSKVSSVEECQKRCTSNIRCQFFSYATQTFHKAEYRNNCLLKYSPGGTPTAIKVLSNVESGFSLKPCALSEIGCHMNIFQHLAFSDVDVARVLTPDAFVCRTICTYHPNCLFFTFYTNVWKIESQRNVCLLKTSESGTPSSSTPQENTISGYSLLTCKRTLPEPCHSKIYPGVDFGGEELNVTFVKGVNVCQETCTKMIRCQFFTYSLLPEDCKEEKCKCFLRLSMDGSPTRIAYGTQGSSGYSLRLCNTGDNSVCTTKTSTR

SMILES	IC50 [1] [nM]	IC50 [2] [nM]
Nc1nccc2cc(CNC(=O)c3cn(Cc4ccc(Oc5ccccc5)nc4)nc3C3CC3)ccc12 [Example 93, 3-Cyclopropyl-1-(6-phenoxy-pyridin-3-ylmethyl)-1H-pyrazole-4-carboxylic acid (1-amino-isoquinolin-6-ylmethyl)-amide]	75.1	> 10000
Cc1cc(C(=O)NCc2cnc3[nH]ccc3c2)c(C)n1Cc1csc(-c2ccccc2)n1 [Example 3, 2,5-Dimethyl-1-(2-phenyl-thiazol-4-ylmethyl)-1H-pyrrole-3-carboxylic acid (1H-pyrrolo[2,3-b]pyridin-5-ylmethyl)-amide]	2690	> 10000
N#Cc1cnn(Cc2ccc(Cn3cc(C(=O)NCc4ccc5c(N)nccc5c4)c(C(F)(F)F)n3)cc2)c1 [Example 77, 1-[4-(4-Cyano-pyrazol-1-ylmethyl)-benzyl]-3-trifluoromethyl-1H-pyrazole-4-carboxylic acid (1-amino-isoquinolin-6-ylmethyl)-amide]	85.4	> 10000
NC(=O)c1cnn(Cc2ccc(Cn3cc(C(=O)NCc4ccc5c(N)nccc5c4)c(C(F)(F)F)n3)cc2)c1 [Example 78, 1-[4-(4-Carbamoyl-pyrazol-1-ylmethyl)-benzyl]-3-trifluoromethyl-1H-pyrazole-4-carboxylic acid (1-amino-isoquinolin-6-ylmethyl)-amide]	91.1	> 10000
CCn1c(C(=O)NCc2ccc3c(N)nccc3c2)cc(C)c1Cc1csc(-c2ccccc2)n1 [Example 29, 1-Ethyl-4-methyl-5-(2-phenyl-thiazol-4-ylmethyl)-1H-pyrrole-2-carboxylic acid (1-amino-isoquinolin-6-ylmethyl)-amide]	620	> 10000
CCOc1cc(Cn2cc(C(=O)NCc3ccc4c(N)nccc4c3)c(C(F)(F)F)n2)cnc1Cl [Example 74, 1-(6-Chloro-5-ethoxy-pyridin-3-ylmethyl)-3-trifluoromethyl-1H-pyrazole-4-carboxylic acid (1-amino-isoquinolin-6-ylmethyl)-amide]	425	2770
Nc1nccc2cc(CNC(=O)c3cn(Cc4ccc(N5CCC(CO)C5)nc4)nc3C(F)(F)F)ccc12 (centres unmarked) [Example 69, 1-[6-(3-Hydroxymethyl-pyrrolidin-1-yl)-pyridin-3-ylmethyl]-3-trifluoromethyl-1H-pyrazole-4-carboxylic acid (1-amino-isoquinolin-6-ylmethyl)-amide]	32.3	4740
O=C(NCc1n[nH]c2ccc(Cl)cc12)c1cn(Cc2ccc(N3CCCC3)nc2)nc1C(F)(F)F [Example 128, 1-(6-Pyrrolidin-1-yl-pyridin-3-ylmethyl)-3-trifluoromethyl-1H-pyrazole-4-carboxylic acid (5-chloro-1H-indazol-3-ylmethyl)-amide]	24.9	> 10000
Cc1cnn(Cc2ccc(Cn3cc(C(=O)NCc4ccc5c(N)nccc5c4)c(C(=O)O)n3)cc2)c1 [Example 17, 4-[(1-Amino-isoquinolin-6-ylmethyl)-carbamoyl]-1-[4-(4-methyl-pyrazol-1-ylmethyl)-benzyl]-1H-pyrazole-3-carboxylic acid]	1190	> 10000
CCOc1ccc(Cn2cc(C(=O)NCc3ccc4c(N)nccc4c3)c(NC(=O)COC)n2)cn1 [Example 27, 1-(6-Ethoxy-pyridin-3-ylmethyl)-3-(2-methoxy-acetylamino)-1H-pyrazole-4-carboxylic acid (1-amino-isoquinolin-6-ylmethyl)-amide]	128	3200
CCOc1ncc(Cn2cc(C(=O)NCc3ccc4c(N)nccc4c3)c(C3CC3)n2)cc1Cl [Example 94, 1-(5-Chloro-6-ethoxy-pyridin-3-ylmethyl)-3-cyclopropyl-1H-pyrazole-4-carboxylic acid (1-amino-isoquinolin-6-ylmethyl)-amide]	53.2	2000
Cc1cnn(Cc2ccc(Cn3cc(C(=O)NCc4ccc5c(N)nccc5c4)c(=O)[nH]3)cc2)c1 [Example 19, 1-[4-(4-Methyl-pyrazol-1-ylmethyl)-benzyl]-3-oxo-2,3-dihydro-1H-pyrazole-4-carboxylic acid (1-amino-isoquinolin-6-ylmethyl)-amide]	994	> 10000
Nc1nccc2cc(CNC(=O)c3cn(Cc4csc(Cn5cccn5)n4)nc3C(F)(F)F)ccc12 [Example 81, 1-(2-Pyrazol-1-ylmethyl-thiazol-4-ylmethyl)-3-trifluoromethyl-1H-pyrazole-4-carboxylic acid (1-amino-isoquinolin-6-ylmethyl)-amide]	26.5	8970
CCOc1ccc(Cn2cc(C(=O)NCc3ccc4c(N)nccc4c3)c(-c3ccccc3)n2)cn1 [Example 26, 1-(6-Ethoxy-pyridin-3-ylmethyl)-3-phenyl-1H-pyrazole-4-carboxylic acid (1-amino-isoquinolin-6-ylmethyl)-amide]	205	4730
CCOc1ccc(Cn2cc(C(=O)NCc3ccc4c(N)nccc4c3)c(N)n2)cn1 [Example 98, 3-Amino-1-(6-ethoxy-pyridin-3-ylmethyl)-1H-pyrazole-4-carboxylic acid (1-amino-isoquinolin-6-ylmethyl)-amide]	62.4	3140
CCC(C)Oc1ccc(Cn2cc(C(=O)NCc3ccc4c(N)nccc4c3)c(C(F)(F)F)n2)cn1 (centres unmarked) [Example 72, 1-(6-sec-Butoxy-pyridin-3-ylmethyl)-3-trifluoromethyl-1H-pyrazole-4-carboxylic acid (1-amino-isoquinolin-6-ylmethyl)-amide]	118	> 10000

Compounds with a lower IC50 [1], results first:

IC50 [1] [nM]	IC50 [2] [nM]	SMILES
23.2	6460	Nc1nccc2cc(CNC(=O)c3cn(Cc4ccc(N5CCC(F)(F)C5)nc4)nc3C3CC3)ccc12 [Example 87, 3-Cyclopropyl-1-[6-(3,3-difluoro-pyrrolidin-1-yl)-pyridin-3-ylmethyl]-1H-pyrazole-4-carboxylic acid (1-amino-isoquinolin-6-ylmethyl)-amide]
4.15	3460	Nc1nn(Cc2ccc(N3CCCC3)nc2)cc1C(=O)NCc1ccc2c(N)nccc2c1 [Example 99, 3-Amino-1-(6-pyrrolidin-1-yl-pyridin-3-ylmethyl)-1H-pyrazole-4-carboxylic acid (1-amino-isoquinolin-6-ylmethyl)-amide]
17.8	960	COc1cc(N2CCCC2)ncc1Cn1cc(C(=O)NCc2ccc3c(N)nccc3c2)c(C2CC2)n1 [Example 89, 3-Cyclopropyl-1-(4-methoxy-6-pyrrolidin-1-yl-pyridin-3-ylmethyl)-1H-pyrazole-4-carboxylic acid (1-amino-isoquinolin-6-ylmethyl)-amide]
13.3	5950	Nc1nn(Cc2ccc(Cn3ccccc3=O)cc2)cc1C(=O)NCc1cccc2[nH]ncc12 [Example 113, 3-Amino-1-[4-(2-oxo-2H-pyridin-1-ylmethyl)-benzyl]-1H-pyrazole-4-carboxylic acid (1H-indazol-4-ylmethyl)-amide]
14.3	> 10000	Cc1cnn(Cc2ccc(Cn3c(C)cc(C(=O)NCc4ccc5c(N)nccc5c4)c3C)cc2)c1 [Example 9, 2,5-Dimethyl-1-[4-(4-methyl-pyrazol-1-ylmethyl)-benzyl]-1H-pyrrole-3-carboxylic acid (1-amino-isoquinolin-6-ylmethyl)-amide]
16.8	> 10000	Nc1nccc2cc(CNC(=O)c3cnn(Cc4ccc(Cn5cccn5)cc4)c3N)ccc12 [Example 53, 5-Amino-1-(4-pyrazol-1-ylmethyl-benzyl)-1H-pyrazole-4-carboxylic acid (1-amino-isoquinolin-6-ylmethyl)-amide]
13.3	3110	C[C@@H]1CCN(c2ccc(Cn3cc(C(=O)NCc4ccc5c(N)nccc5c4)c(C(F)(F)F)n3)cn2)C1 [Example 58, 1-[6-((R)-3-Methyl-pyrrolidin-1-yl)-pyridin-3-ylmethyl]-3-trifluoromethyl-1H-pyrazole-4-carboxylic acid (1-amino-isoquinolin-6-ylmethyl)-amide]
10.4	2790	Nc1nccc2cc(CNC(=O)c3cn(Cc4cnc(N5CCCC5)nc4)nc3C(F)(F)F)ccc12 [Example 64, 1-(2-Pyrrolidin-1-yl-pyrimidin-5-ylmethyl)-3-trifluoromethyl-1H-pyrazole-4-carboxylic acid (1-amino-isoquinolin-6-ylmethyl)-amide]
13.8	> 10000	Nc1nccc2cc(CNC(=O)c3cn(Cc4ccc(Cn5ccnn5)cc4)nc3C3CC3)ccc12 [Example 91, 3-Cyclopropyl-1-(4-[1,2,3]triazol-1-ylmethyl-benzyl)-1H-pyrazole-4-carboxylic acid (1-amino-isoquinolin-6-ylmethyl)-amide]
2.4	> 10000	Cc1cnn(Cc2ccc(Cn3cnc(C(=O)NCc4ccc5c(N)nccc5c4)c3)cc2)c1 [Example 10, 1-[4-(4-Methyl-pyrazol-1-ylmethyl)-benzyl]-1H-imidazole-4-carboxylic acid (1-amino-isoquinolin-6-ylmethyl)-amide]
22.6	1570	Nc1nccc2cc(CNC(=O)c3cn(Cc4cnc(N5CCCC5)c(F)c4)nc3C(F)(F)F)ccc12 [Example 73, 1-(5-Fluoro-6-pyrrolidin-1-yl-pyridin-3-ylmethyl)-3-trifluoromethyl-1H-pyrazole-4-carboxylic acid (1-amino-isoquinolin-6-ylmethyl)-amide]
11.6	4700	Nc1nccc2cc(CNC(=O)c3cn(Cc4ccc(N5CCCC5)nc4)nc3C3CC3)ccc12 [Example 90, 3-Cyclopropyl-1-(6-pyrrolidin-1-yl-pyridin-3-ylmethyl)-1H-pyrazole-4-carboxylic acid (1-amino-isoquinolin-6-ylmethyl)-amide]
